The source of these data is patent US20220378954A1, “METHODS FOR RADIOLABELLING GRPR ANTAGONISTS AND THEIR KITS” (NOVARTIS AG, priority 2019, published 2022).

A short description of this data set: Peptide adhesion tests (non-specific binding of NeoB to glass and plastic surfaces). The format is physicochemical. To be noted: final formulation: NeoB 50 μg, Mannitol 20 mg, Kolliphor HS15 500 μg, Gentisic acid 200 μg; three independent radiolabelling tests; adhesion to the glass.

Where “and” joins values, the source holds several entries; their conditions need not be identical. Equal values may be shown once.

`CC(C)CC(CC(C)C)NC(=O)[C@H](Cc1cnc[nH]1)NC(=O)CNC(=O)[C@@H](NC(=O)[C@H](C)NC(=O)[C@H](Cc1c[nH]c2ccccc12)NC(=O)[C@H](CCC(N)=O)NC(=O)[C@@H](Cc1ccccc1)NC(=O)COCC(=O)Nc1ccc(CNC(=O)CN2CCN(CC(=O)O)CCN(CC(=O)O)CCN(CC(=O)O)CC2)cc1)C(C)C` [NeoB]: the “Peptide Adhesion (%)” value is 4.8% and 5.0% and 5.8%.
